Laboratory results published in patent publication US6387415B1, “Sequestered metal biocides using ionic polymeric stabilizing agents” (Bio-Lab, Inc., priority 1995, dated 2002).
Where two headings read alike, the source gives them in different places.

Columns and labels:
Assay type in all cases: cell-based
E. Coli = assay: MIC study against bacteria on microtiter plates; parameters: key: (−) indicates no bacterial growth was seen; (+) indicates bacterial growth was seen
Method: (§1) MIC data gives the minimum concentration of biocide needed to prevent growth of bacteria in a culture. Individual MIC's were determined by screening on microtiter plates. In order to determine the MIC's, 50 μl of phosphate water is added to each row in columns 2-12. Next, 100 μl of a biocide is added to column […]). Fifty microliters of the biocide is removed from column 1 and serially diluted from columns 2-11 using an eight tip pipettor (octapette). Finally, 50 μl of microbial inoculum is added to columns 1-11 (all rows) and column 12 (row A and E only). Column 12 serves as the row for sterility and viability controls. Bacterial inoculua contain about 1×10^9 colony forming units (cfu) per ml are prepared in 1⁄5 strength Nutrient broth. Bacterial microtiter plates are incubated at 37° C. for 48 hours. MIC's are determined by visual observation of the plates.

S. aureus = assay: MIC study against bacteria on microtiter plates; parameters: key: (−) indicates no bacterial growth was seen; (+) indicates bacterial growth was seen
Method: as §1

Phormidium sp. = assay: MIC study against algae (visual growth after two weeks); parameters: key: (−) indicates no algae growth was seen; (+) indicates algae growth was seen
Method: (§2) MIC data gives the minimum concentration of biocide needed to prevent growth of the algae in a culture.
(§3) The MIC studies are performed in sterile glassware using both viability and sterility controls. An algae suspension is added to test tubes containing the appropriate amounts of test biocide and the tubes are incubated for two weeks under fluorescent lights (on a “12 hour on”/“12 hour off” lighting regimen). The cultures are then measured by visual observation to determine the presence of living algae.

Phormidium inudatum = assay: as above; parameters: key: (−) indicates no algae growth was seen; (+) indicates algae growth was seen
Method: as §2, §3

Chlorella sp. = assay: as above; parameters: key: (−) indicates no algae growth was seen; (+) indicates algae growth was seen
Method: as §2, §3

bacterial growth, MIC results against E. Coli (E. Coli; Silver Conc. 0.39 ppm)	bacterial growth, MIC results against E. Coli (E. Coli; Silver Conc. 1.56 ppm)	bacterial growth, MIC results against E. Coli (E. Coli; Silver Conc. 3.1 ppm)	bacterial growth, MIC results against E. Coli (E. Coli; Silver Conc. 12.5 ppm)	bacterial growth, MIC results against E. Coli (E. Coli; Silver Conc. 25 ppm)	bacterial growth, MIC results against S. aureus (S. aureus; Silver Conc. 0.39 ppm)	bacterial growth, MIC results against S. aureus (S. aureus; Silver Conc. 0.78 ppm)	bacterial growth, MIC results against S. aureus (S. aureus; Silver Conc. 1.56 ppm)	bacterial growth, MIC results against S. aureus (S. aureus; Silver Conc. 12.5 ppm)	bacterial growth, MIC results against S. aureus (S. aureus; Silver Conc. 25 ppm)	Structure (SMILES)	bacterial growth, MIC results against E. Coli (E. Coli)	bacterial growth, MIC results against S. aureus (S. aureus)	algae growth, MIC results against Phormidium sp. (Phormidium sp.)	algae growth, MIC results against Phormidium inudatum (Phormidium inudatum)	algae growth, MIC results against Chlorella sp. (Chlorella sp.)
										O=S(=O)([O-])[O-].[Cu+2] [Unsequestered Copper, copper sulfate]	− and +	− and +	−	−	−
+	+	−	−	−	+	+	−	−	−	[Ag] [Unsequestered Silver]					
